Reference: PMC6856039 (Investigational New Drugs, 2019)
Read-outs that look alike come from different tables or passages of the source. Marks after values point to notes of the source that are not given here.

Legend:
[1] = Procedure: PK parameters were evaluated on Day 1 and Day 15.
The planned sample size was 300 patients maximum, including 54 patients in the dose escalation phase, seven patients at each level of the first stage of the expansion phase, 20 patients at each level in the second stage of the expansion phase, and in the extension phase, 100, 40, 20, and 10 patients in Cohorts A, B, C, and D, respectively. The main analysis sets in each study phase are defined in Supplementary Table 1 (Online Resource 3). Safety and efficacy data are summarized using descriptive statistics. PK parameters were calculated according to the non-compartmental method. ORR, DCR, and median PFS were calculated along with 95% CIs. The statistical software used to perform statistical analyses was SAS version 9.2 (SAS Inc., Cary, NC, USA, RRID: SCR_008567). For the PK analysis, Phoenix® WinNonlin® Ver. 6.3 and 6.4 (Certara, Princeton, NJ, USA) was used.

[2] = tested on: T790M-positive NSCLC patients; format: in vivo, human; details: for median PFS / Best overall response: Not evaluable / Best overall response: Partial response / Best overall response: Progression disease / Best overall response: Stable disease / Disease control rate / Objective response rate: T790M-positive
Source text: To assess the EGFR T790M mutation tumor status, mandatorily collected plasma from patients was processed, and isolated circulating cell-free DNA (cfDNA) was submitted for laboratory testing (Fluorescence Resonance Energy Transfer-based Preferential Formation Assay [F-PHFA] method) by central review. In some patients, collected tumor biopsies were submitted for EGFR genotyping (Therascreen® EGFR RGQ PCR kit [Qiagen, Venlo, Netherlands]).
Antitumor efficacy was based on objective tumor assessments according to the Response Evaluation Criteria in Solid Tumors criteria (version 1.1, 2009). Computed tomography scans were performed at baseline, every 6 weeks after starting administration, and at the time of discontinuation. The ORR, DCR, and PFS at each phase were assessed according to dose level and regimen. ORR was defined as the proportion of patients in which the best overall response was determined to be CR or PR and was calculated in patients with measurable lesions. DCR was defined as the proportion of patients in which the best overall response was determined to be CR, PR, or stable disease. PFS was defined as the median time from enrollment to PD or death from any cause.

[3] = BID 8 mg/day, cycle 1, day 15, n = 9
[4] = BID 12 mg/day, cycle 1, day 15, n = 4
[5] = QD 4 mg/day, cycle 1, day 15, n = 3
[6] = QD 8 mg/day, cycle 1, day 15, n = 9
[7] = QD 10 mg/day, cycle 1, day 15, n = 7
[8] = QD 12 mg/day, cycle 1, day 15, n = 2
[9] = QD 16 mg/day, cycle 1, day 15, n = 1

Structure (SMILES): C=CC(=O)N[C@H]1CCc2c(-c3cnc4ccccc4c3)c3c(N)ncnc3n2C1 [TAS-121]
- AUC0-12h, mean (standard deviation) [1, 3]: 1520 (520) ng•h/mL
- Cmax, mean (standard deviation) [1, 3]: 290 (104) ng/mL
- T1/2, mean (standard deviation) [1, 3]: 5.11 (1.48) h
- Tmax, median (minimum–maximum) [1, 3]: 1.00 (0.50–1.00) h
- AUC0-12h, mean (standard deviation) [1, 4]: 5860 (1460) ng•h/mL
- Cmax, mean (standard deviation) [1, 4]: 772 (201) ng/mL
- T1/2, mean (standard deviation) [1, 4]: 8.84 (3.31) h
- Tmax, median (minimum–maximum) [1, 4]: 2.00 (1.00–3.00) h
- AUC0-24h, mean (standard deviation) [1, 5]: 2670 (1110) ng•h/mL
- Cmax, mean (standard deviation) [1, 5]: 304 (13) ng/mL
- T1/2, mean (standard deviation) [1, 5]: 8.83 (2.88) h
- Tmax, median (minimum–maximum) [1, 5]: 1.00 (1.00–1.00) h
- AUC0-24h, mean (standard deviation) [1, 6]: 4860 (2520) ng•h/mL
- Cmax, mean (standard deviation) [1, 6]: 569 (312) ng/mL
- T1/2, mean (standard deviation) [1, 6]: 8.60 (2.49) h
- Tmax, median (minimum–maximum) [1, 6]: 1.00 (0.50–2.00) h
- AUC0-24h, mean (standard deviation) [1, 7]: 8040 (4190) ng•h/mL
- Cmax, mean (standard deviation) [1, 7]: 900 (376) ng/mL
- T1/2, mean (standard deviation) [1, 7]: 8.61 (1.73) h
- Tmax, median (minimum–maximum) [1, 7]: 2.00 (0.75–4.00) h
- T1/2 ([1]; QD 12 mg/day, cycle 1, day 15, based on one patient): 8.12 (NA)^b h
- AUC0-24h, mean [1, 8]: 9500 (NA) ng•h/mL
- Cmax, mean [1, 8]: 1180 (NA) ng/mL
- Tmax, median (minimum–maximum) [1, 8]: 1.12 (1.00–1.23) h
- AUC0-24h [1, 9]: 5870 (NA) ng•h/mL
- Cmax [1, 9]: 825 (NA) ng/mL
- T1/2 [1, 9]: 6.44 (NA) h
- Tmax [1, 9]: 2.00 (NA) h
- objective response rate (ORR) ([2]; T790M-positive patients with measurable lesions, n = 86, regardless of the dosage): 28%
- objective response rate (ORR) ([2]; T790M-positive patients, 8 mg/day BID): 39%
- median PFS ([2]; 4 mg/day QD, 23 patients/17 events): 165 days
- Best overall response: Not evaluable ([2]; 4 mg/day QD, N = 15): 1 (6.7) n (%)
- Best overall response: Partial response ([2]; 4 mg/day QD, N = 15): 4 (26.7) n (%)
- Best overall response: Progression disease ([2]; 4 mg/day QD, N = 15): 7 (46.7) n (%)
- Best overall response: Stable disease ([2]; 4 mg/day QD, N = 15): 3 (20.0) n (%)
- Disease control rate ([2]; 4 mg/day QD, N = 15): 7 (46.7) n (%)
- Objective response rate ([2]; 4 mg/day QD, N = 15): 4 (26.7) n (%)
- median PFS ([2]; 8 mg/day BID, 36 patients/21 events): 253 days
- Best overall response: Not evaluable ([2]; 8 mg/day BID, N = 33): 1 (3.0) n (%)
- Best overall response: Partial response ([2]; 8 mg/day BID, N = 33): 13 (39.4) n (%)
- Best overall response: Progression disease ([2]; 8 mg/day BID, N = 33): 8 (24.2) n (%)
- Best overall response: Stable disease ([2]; 8 mg/day BID, N = 33): 11 (33.3) n (%)
- Disease control rate ([2]; 8 mg/day BID, N = 33): 24 (72.7) n (%)
- Objective response rate ([2]; 8 mg/day BID, N = 33): 13 (39.4) n (%)
- median PFS ([2]; 8 mg/day QD, 33 patients/25 events): 125 days
- Best overall response: Not evaluable ([2]; 8 mg/day QD, N = 28): 0 (0.0) n (%)
- Best overall response: Partial response ([2]; 8 mg/day QD, N = 28): 6 (21.4) n (%)
- Best overall response: Progression disease ([2]; 8 mg/day QD, N = 28): 11 (39.3) n (%)
- Best overall response: Stable disease ([2]; 8 mg/day QD, N = 28): 11 (39.3) n (%)
- Disease control rate ([2]; 8 mg/day QD, N = 28): 17 (60.7) n (%)
- Objective response rate ([2]; 8 mg/day QD, N = 28): 6 (21.4) n (%)
- Best overall response: Not evaluable ([2]; 10 mg/day QD, N = 7): 0 (0.0) n (%)
- Best overall response: Partial response ([2]; 10 mg/day QD, N = 7): 1 (14.3) n (%)
- Best overall response: Progression disease ([2]; 10 mg/day QD, N = 7): 3 (42.9) n (%)
- Best overall response: Stable disease ([2]; 10 mg/day QD, N = 7): 3 (42.9) n (%)
- Disease control rate ([2]; 10 mg/day QD, N = 7): 4 (57.1) n (%)
- Objective response rate ([2]; 10 mg/day QD, N = 7): 1 (14.3) n (%)
- median PFS ([2]; 10 mg/day QD, seven patients/three events): 401 days
- Best overall response: Not evaluable ([2]; 12 mg/day BID, N = 3): 1 (33.3) n (%)
- Best overall response: Partial response ([2]; 12 mg/day BID, N = 3): 0 (0.0) n (%)
- Best overall response: Progression disease ([2]; 12 mg/day BID, N = 3): 1 (33.3) n (%)
- Best overall response: Stable disease ([2]; 12 mg/day BID, N = 3): 1 (33.3) n (%)
- Disease control rate ([2]; 12 mg/day BID, N = 3): 1 (33.3) n (%)
- Objective response rate ([2]; 12 mg/day BID, N = 3): 0 (0.0) n (%)
- Best overall response: Not evaluable ([2]; 12 mg/day QD, N = 1): 0 (0.0) n (%)
- Best overall response: Partial response ([2]; 12 mg/day QD, N = 1): 0 (0.0) n (%)
- Best overall response: Progression disease ([2]; 12 mg/day QD, N = 1): 1 (100.0) n (%)
- Best overall response: Stable disease ([2]; 12 mg/day QD, N = 1): 0 (0.0) n (%)
- Disease control rate ([2]; 12 mg/day QD, N = 1): 0 (0.0) n (%)
- Objective response rate ([2]; 12 mg/day QD, N = 1): 0 (0.0) n (%)
- Best overall response: Not evaluable ([2]; Total, N = 87): 3 (3.4) n (%)
- Best overall response: Partial response ([2]; Total, N = 87): 24 (27.6) n (%)
- Best overall response: Progression disease ([2]; Total, N = 87): 31 (35.6) n (%)
- Best overall response: Stable disease ([2]; Total, N = 87): 29 (33.3) n (%)
- Disease control rate ([2]; Total, N = 87): 53 (60.9) n (%)
- Objective response rate ([2]; Total, N = 87): 24 (27.6) n (%)
